From US8268862B2, “Sirtuin modulating compounds” (Sirtris Pharmaceuticals, Inc., priority 2007, dated 2012)

Molecular target: T1, SIRT1 (Homo sapiens, UniProt Q96EB6)
T1 sequence (Q96EB6 1-747): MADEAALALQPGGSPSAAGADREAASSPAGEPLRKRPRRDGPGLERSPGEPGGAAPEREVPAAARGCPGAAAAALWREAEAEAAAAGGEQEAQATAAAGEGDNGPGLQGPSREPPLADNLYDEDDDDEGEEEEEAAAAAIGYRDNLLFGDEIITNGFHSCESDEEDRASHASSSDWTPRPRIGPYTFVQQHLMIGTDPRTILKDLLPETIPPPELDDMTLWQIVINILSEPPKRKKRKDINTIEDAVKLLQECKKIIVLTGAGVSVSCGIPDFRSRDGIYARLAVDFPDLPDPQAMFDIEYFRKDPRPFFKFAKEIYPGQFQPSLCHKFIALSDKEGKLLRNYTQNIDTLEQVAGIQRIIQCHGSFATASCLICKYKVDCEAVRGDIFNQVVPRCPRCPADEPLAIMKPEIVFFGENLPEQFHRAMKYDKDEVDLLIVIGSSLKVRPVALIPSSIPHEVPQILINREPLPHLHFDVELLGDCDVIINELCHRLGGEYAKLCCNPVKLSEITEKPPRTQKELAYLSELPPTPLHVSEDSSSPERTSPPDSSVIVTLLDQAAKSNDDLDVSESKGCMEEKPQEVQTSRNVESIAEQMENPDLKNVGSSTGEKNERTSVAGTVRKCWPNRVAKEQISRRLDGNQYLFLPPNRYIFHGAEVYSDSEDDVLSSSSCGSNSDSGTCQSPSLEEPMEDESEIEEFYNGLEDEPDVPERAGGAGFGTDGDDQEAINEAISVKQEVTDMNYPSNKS
Assay: mass spectrometry based SIRT1 deacetylation assay (activation)
Format: biochemical
Conditions: 0.5 μM peptide substrate, 120 μM βNAD+, 10 nM SIRT1, 25 min at 25° C.; for Emax: read-out: % FOLD ACT. (percent maximum fold activation of SIRT1); for EC1.5 (concentration of test compound that results in 150% activation of SIRT1): NA = not active in the assay

Row | Structure (SMILES) | Emax [%] | EC1.5 (concentration of test compound that results in 150% activation of SIRT1) [NM]
1 | O=C(Nc1ccccc1-c1nc2cc(CN3CCNCC3)cnc2s1)c1ccc2ncsc2c1 [Compound 70] | 298 | –
2 | CC(C)NCc1cnc2sc(-c3ccccc3NC(=O)c3cccc(-c4cccnc4)c3)nc2c1 [Compound 23] | 241 | 1950
3 | O=C(Nc1ccccc1-c1nc2cc(CN3CCOCC3)cnc2s1)c1cn2cccnc2n1 [Compound 112] | 375 | 2330
4 | O=C(Nc1ccccc1-c1nc2cc(CN3CCOCC3)cnc2s1)c1ccc2ccccc2n1 [Compound 68] | 295 | 593
5 | O=C(Nc1ccccc1-c1nc2cc(CN3CCOCC3)cnc2s1)c1ccc2cccnc2n1 [Compound 107] | 219 | 500
6 | CN1CCN(Cc2cnc3sc(-c4ccccc4NC(=O)c4ccc5ccccc5n4)nc3c2)CC1 [Compound 90] | 221 | 190
7 | CC(C)NCc1cnc2sc(-c3ccccc3NC(=O)c3cccc(-c4ccccn4)c3)nc2c1 [Compound 14] | 381 | 937
8 | COCCN1CCN(Cc2cnc3sc(-c4ccccc4NC(=O)c4cc(-c5ccccc5)ncn4)nc3c2)CC1 [Compound 87] | 166 | 955
9 | CC(C)NCc1cnc2sc(-c3ccccc3NC(=O)c3cncc(-c4ccccc4)c3)nc2c1 [Compound 28] | 162 | 3590
10 | COCCN1CCN(Cc2cnc3sc(-c4ccccc4NC(=O)c4cc(-c5ccccc5)ccn4)nc3c2)CC1 [Compound 86] | 137 | –
11 | COc1cc(C(=O)Nc2ccccc2-c2nc3cc(CN4CCOCC4)cnc3s2)nc2ccccc12 [Compound 105] | 292 | 1590
12 | O=C(Nc1ccccc1-c1nc2cc(CN3CCOCC3)cnc2s1)c1cc(-c2ccccc2)n[nH]1 [Compound 3] | 246 | 1620
13 | Cc1nc(-c2cccc(C(=O)Nc3ccccc3-c3nc4cc(CN5CCOCC5)cnc4s3)c2)cs1 [Compound 39] | 241 | 400
14 | O=C(Nc1ccccc1-c1nc2cc(CN3CCC(O)CC3)cnc2s1)c1ccc2ccccc2n1 [Compound 99] | 244 | 110
15 | O=C(Nc1ccccc1-c1nc2cc(CN3CCOCC3)cnc2s1)c1cccc2ccccc12 [Compound 97] | 186 | 3020
16 | O=C(Nc1ccccc1-c1nc2cc(CN3CCNCC3)cnc2s1)c1cn2cc(F)ccc2n1 [Compound 124] | 314 | 1060
17 | O=C(Nc1ccccc1-c1nc2cc(CN3CCOCC3)cnc2s1)c1cnc2ccccc2c1 [Compound 106] | 189 | 69840

Now from value to molecule:

Row | Emax [%] | EC1.5 (concentration of test compound that results in 150% activation of SIRT1) [NM] | Structure (SMILES)
18 | 448 | 214 | COCCN1CCN(Cc2cnc3sc(-c4ccccc4NC(=O)c4cccc(-c5ccc(Cl)cc5)n4)nc3c2)CC1 [Compound 137]
19 | 267 | 67 | Cn1cc(-c2ccccc2)cc1C(=O)Nc1ccccc1-c1nc2cc(CN3CCOCC3)cnc2s1 [Compound 150]
20 | 378 | 394 | COCCN1CCN(Cc2cnc3sc(-c4ccccc4NC(=O)c4cccc(-c5ccc(F)cc5F)n4)nc3c2)CC1 [Compound 142]
21 | 143 | – | O=C(Nc1ccccc1-c1nc2cc(CN3CCOCC3)cnc2s1)c1cn2cc(Cl)ccc2n1 [Compound 127]
22 | 372 | 2121 | COCCN1CCN(Cc2cnc3sc(-c4ccccc4NC(=O)c4cccc(-c5ccccc5C#N)n4)nc3c2)CC1 [Compound 143]
23 | 402 | 559 | COCCN1CCN(Cc2cnc3sc(-c4ccccc4NC(=O)c4cccc(-c5ccc(C#N)cc5)n4)nc3c2)CC1 [Compound 144]
24 | 487 | 127 | COCCN1CCN(Cc2cnc3sc(-c4ccccc4NC(=O)c4cccc(-c5ccc(F)cc5)n4)nc3c2)CC1 [Compound 141]
25 | 170 | 591 | Cn1cc(-c2ccccc2)cc1C(=O)Nc1ccccc1-c1nc2cc(CN3CCCC3)cnc2s1 [Compound 151]
26 | > 500 | 321 | COCCN1CCN(Cc2cnc3sc(-c4ccccc4NC(=O)c4cc(-c5ccccc5)n[nH]4)nc3c2)CC1 [Compound 152]
